Measured values from paper PMC12040169 (PLOS Biology, 2025).

Test: in vitro
Conditions: human, hela cells, % viability

Compound	viability at 28.5 h, 10 µM	viability at 28.5 h, 10 µM (bulk resorufin, single well)
O=C(Cc1ccccc1)N1CCN(C(=O)c2ccco2)CC1 [CBK068325]	93.4%	
CC(=O)CSc1nnc(-c2ccc(F)cc2)o1 [CBK068327]	110%	
O=C(c1ccco1)N1CCN(S(=O)(=O)c2ccc(Cl)cc2)CC1 [CBK068411]	104%	
Cc1ccc2cc(CN(Cc3cccs3)C(=O)NCc3ccccc3)c(=O)[nH]c2c1C [CBK068496]	91.2%	
O=C(CSc1nnc(-c2ccccc2Br)o1)c1ccc(F)cc1 [CBK068688]	92.2%	
COC(=O)c1ccc(S(=O)(=O)N2CCc3ccccc3C2)cc1 [CBK068696]	109%	
Cc1ccc2[nH]c(=O)c(CN(Cc3ccccc3)C(=O)NC3CCCCC3)cc2c1 [CBK068704]	84.5%	
O=C(CSc1nnc(-c2cccc(F)c2)o1)c1ccccc1 [CBK068764]	105%	
COCCn1nnnc1C(c1cc2cc(C)cc(C)c2[nH]c1=O)N1CCOCC1 (stereo not drawn) [CBK068815]	95.3%	
CCCOc1ccc(-c2nnn(CC(=O)OCC)n2)cc1 [CBK068817]	98.8%	
CCOC(=O)CSc1nnc(-c2ccc(Cl)cc2)o1 [CBK068845]	105%	
COC(=O)Cn1nnc(-c2ccccc2)n1 [CBK069215]	84.8%	
COCCNC(=O)Cn1nnc(-c2ccc(OC)cc2)n1 [CBK069349]	88.1%	
CS(=O)(=O)Nc1nnc(C2CCCCC2)s1 [CBK069540]	95.6%	
CCOC(=O)Cn1nnc(-c2ccc(Cl)cc2)n1 [CBK069596]	95.8%	
COc1ccc(NC(=O)C2CCCN2S(=O)(=O)c2ccc(OC)cc2)cc1 (stereo not drawn) [CBK070001]	78.1%	
COc1cccc(-c2csc(N3CCN(C(=O)Nc4ccccc4)CC3)n2)c1 [CBK070275]	95.4%	
CC(C)C1OC(NCc2ccccc2Cl)=NC1=O (stereo not drawn) [CBK070344]	95.1%	
COc1ccc(S(=O)(=O)N2CCN(c3ccccc3F)CC2)cc1 [CBK070377]	87.1%	
CC(C)C1OC(N2CCOCC2)=NC1=O (stereo not drawn) [CBK070384]	92.3%	
CCC(=O)Nc1nc(-c2ccc(OC)cc2)cs1 [CBK070494]	85.7%	
CCCCOc1ccc(-c2nnn(C(C)C(=O)O)n2)cc1 (stereo not drawn) [CBK070540]	103%	
CCCCOc1ccc(-c2nnn(CC(=O)Nc3ccccc3)n2)cc1 [CBK070609]	90.2%	
CCNC(=O)Nc1ncc(-c2ccc3c(c2)OCCCO3)c2cccnc12 [CBK070634]	104%	

Compound	viability at 28.5 h, 10 µM	viability at 28.5 h, 10 µM (bulk resorufin, single well)
CCNC(=O)Nc1ccc2c(-c3ccccc3)ccnc2n1 [CBK070668]	95.6%	
CCNC(=O)Nc1ncc(-c2ccsc2)c2cccnc12 [CBK070686]	103%	
CCNC(=O)Nc1cc2cccnc2nc1-c1ccc(S(C)(=O)=O)cc1 [CBK070706]	93.3%	
O=C(Nc1ccccc1)Nc1nc(=O)n(-c2ccccc2)s1 [CBK070710]	93%	
O=C1N=C(NC2CCCCCC2)S[C@@H]1CC1CCCCC1 [CBK070723]	95.8%	
c1ccc2c(c1)OCC(COc1nccnc1OC1CCNCC1)O2 (stereo not drawn) [CBK070766T]	102%	
COc1ccccc1C(=O)Nc1ccc2nc(SCC(=O)NC3CC3)sc2c1 [CBK070791]	92.7%	
Cc1[nH]c2c(Cl)cc(Cl)cc2c1CCN [CBK070893]		103%
CCCCNC(=O)CSc1ncccc1C(=O)NCc1cccnc1 [CBK071590]	91%	
COCCCNC(=O)c1cnn2c(C)c(Cc3ccccc3Br)c(C)nc12 [CBK071628]	101%	
CCNC(Cc1ccc2ccccc2c1)C(=O)OC (stereo not drawn) [CBK071702]	109%	
CC(=O)Nc1cc(C(=O)NCCc2ccccc2)ccc1S(=O)(=O)c1ccc(C)cc1 [CBK071771]	89.3%	
Cc1ccc(CNC(=O)c2ccc3c(c2)NC(=O)C(N2CCCC2)S3)cc1 (stereo not drawn) [CBK071788]	84.6%	
CCCCN(C)CCNC(=O)c1ccc2c(c1)NC(=O)C(N1CCCCC1)S2 (stereo not drawn) [CBK071799]	85.1%	
COc1ccccc1NC(=O)Cn1cnc2sc(C(=O)NC(C)C)c(C)c2c1=O [CBK071847]	93%	
CCOCCn1cnc2sc(C(=O)NCc3ccccn3)c(C)c2c1=O [CBK071857]	93.4%	
Cc1cc2c(=O)n(CC(=O)NCc3ccccn3)cnc2s1 [CBK071900]	91.1%	
CCCNC(=O)Cn1cnc2sc(C(=O)Nc3ccccc3OC)c(C)c2c1=O [CBK071910]	90.3%	
CCCNC(=O)Cn1cnc2sc(C(=O)Nc3ccc(OCC)cc3)c(C)c2c1=O [CBK071920]	91.2%	
O=C(CN1CCN(S(=O)(=O)c2ccc(F)cc2)CC1)Nc1cccc(C(F)(F)F)c1 [CBK071925]	92.7%	
O=C(Nc1nc2ccccc2s1)c1cccnc1Cl [CBK071983]	108%	
Cc1cc(C)c2c(N)c(C(=O)Nc3ccc(Br)cc3)sc2n1 [CBK072019]	108%	
COc1cccc(NC(=O)c2sc(N)nc2-c2ccccc2)c1 [CBK072023]	95.2%	
Cc1ccc(-c2csc(NC(=O)c3ccccc3C(=O)O)n2)cc1 [CBK072083]	91.9%	

Compound	viability at 28.5 h, 10 µM	viability at 28.5 h, 10 µM (bulk resorufin, single well)
CCOC(=O)C1=C(C)NC(=O)NC1c1ccc(-c2cccc([N+](=O)[O-])c2)o1 (stereo not drawn) [CBK072102]	109%	
CC(C)NC(=O)CSc1nc2ccccc2[nH]1 [CBK072235]	92.9%	
COc1cc(NC(=O)CCc2ccccc2)nc(OC)n1 [CBK072282]	79.5%	
O=C1NC(c2cccnc2)Nc2sc3c(c21)CCCC3 (stereo not drawn) [CBK072377]	103%	
CCN(CC)CCSc1nc(O)c(Cc2ccccc2)c(=O)[nH]1 [CBK072486]	88.9%	
O=C(COc1ccccc1)N1CCN(Cc2ccncc2)CC1 [CBK072595]	94.6%	
Clc1ccc(Nc2ncnc3ccccc23)cc1 [CBK072625]	86.1%	
COc1ccc(C(=O)Nc2cccc(-c3nc4ccccc4[nH]3)c2)c(OC)c1 [CBK072662]	95.4%	
Cc1ccc(-c2csc(NC(=O)c3cccnc3)n2)cc1 [CBK072677]	96.9%	
Cc1nc2ccccc2c(=O)n1CC(=O)NCc1ccccc1 [CBK072830]	91.9%	
O=C(O)c1cccc(Nc2ncnc3ccccc23)c1 [CBK073042]	87.8%	
OCCNc1ncnc2ccc(Br)cc12 [CBK073217]	93.9%	
O=C(COc1ccc(Br)cc1)N1CCN(Cc2ccncc2)CC1 [CBK073259]	98.1%	
O=C(COc1ccccc1)N1CCN(Cc2ccccn2)CC1 [CBK073265G]	86.1%	
Cc1ccccc1OCc1nc(C#N)c(NCc2ccc3c(c2)OCO3)o1 [CBK073372]	109%	
Cc1cc(NC(=O)CNC(=O)c2ccccc2)no1 [CBK073427]	99.7%	
CC(C)C(=O)Nc1cccc(C(=O)Nc2nnc(C(F)(F)F)s2)c1 [CBK073453]	107%	
COC(=O)C1=C(C)N=C2SCCC(=O)N2C1c1ccc(C(C)C)cc1 (stereo not drawn) [CBK073523]	109%	
COc1ccc(C)cc1S(=O)(=O)Nc1cc(N2CCN(CC3CC3)CC2)c2occc2c1 [CBK073624C]	94.2%	
CC(C)C(=O)Nc1cc2cccnc2nc1-c1ccccc1 [CBK073647]	94.7%	
CC(C)C(=O)Nc1cc2cccnc2nc1-c1ccsc1 [CBK073649]	87.8%	
CC(C)C(=O)Nc1cc2cccnc2nc1-c1ccc2c(c1)OCCCO2 [CBK073658]	96.3%	
COc1cc(-c2nc3ncccc3cc2NC(=O)C(C)C)cc(OC)c1OC [CBK073661]	96.6%	
COc1ccc(-c2ccc3ccc(NC(=O)C(C)C)nc3n2)cc1C [CBK073665]	92.3%	

Compound	viability at 28.5 h, 10 µM	viability at 28.5 h, 10 µM (bulk resorufin, single well)
COc1ccc([C@@]23CC[C@@H](NC(=O)Nc4ccc(C)c(F)c4F)C[C@@H]2N(C)CC3)cc1OC [CBK073686T]	87.3%	
Oc1cc2cccnc2nc1-c1ccccc1 [CBK073697]	115%	
CC(C)(C)c1ccc(-c2nc3ncccc3cc2O)cc1 [CBK073703]	74.5%	
Oc1cc2cccnc2nc1-c1cccc(C(F)(F)F)c1 [CBK073704]	79%	
COc1ccc(-c2ccc3ccc(=O)[nH]c3n2)cc1C [CBK073712]	108%	
O=c1ccc2ccc(-c3cccc(C(F)(F)F)c3)nc2[nH]1 [CBK073717]	83.7%	
O=c1ccc2ccc(-c3ccc(OC(F)(F)F)cc3)nc2[nH]1 [CBK073720]	98.8%	
O=c1ccc2c(-c3ccccc3)ccnc2[nH]1 [CBK073723]	94.2%	
O=c1ccc2c(-c3ccsc3)ccnc2[nH]1 [CBK073724]	91.5%	
COc1cc(F)ccc1-c1ccnc2[nH]c(=O)ccc12 [CBK073727]	74.2%	
O=c1ccc2c(-c3cccc(OCc4ccccc4)c3)ccnc2[nH]1 [CBK073739]	87.6%	
COc1ccc([C@@]23CC[C@@H](NC(=O)Nc4c(F)cc(F)cc4Cl)C[C@@H]2N(C)CC3)cc1OC [CBK073740T]	112%	
COc1ccc([C@@]23CC[C@@H](NC(=O)Nc4c(F)ccc(F)c4Cl)C[C@@H]2N(C)CC3)cc1OC [CBK073769T]	93%	
CS(=O)(=O)Nc1cc2ccccc2c(-c2ccc3c(c2)CCO3)n1 [CBK073773]	90.5%	
CCNC(=O)Nc1cc2ccccc2c(-c2cccnc2)n1 [CBK073787]	82.3%	
CCOC(=O)C1(N)CCCC1 [CBK073836C]	94.4%	
O=C1CCC(=O)N1 [CBK073851]	88.7%	
CCN(Cc1ccccc1)[C@@H](CO)Cc1ccc(OC)cc1 [CBK073856T]	89.6%	
Cc1cc(C)nc(SCC(=O)N2c3ccccc3C(C)(c3ccc(Cl)cc3)CC2(C)C)n1 (stereo not drawn) [CBK073872]	110%	
O=S(=O)(Nc1ncc(Br)c2cccnc12)c1cccc(C(F)(F)F)c1 [CBK073884]	112%	
O=S(=O)(Nc1ncc(Br)c2cccnc12)c1ccc(Oc2ccccc2)cc1 [CBK073886]	105%	
